Data from the NIST ThermoML archive (doi:10.1021/je034197x).
± gives the expanded uncertainty stated by the source.

Details: Liquid, Closed cell (Static) method

Compound | vapor or sublimation pressure (298.15 K) | vapor or sublimation pressure (303.15 K) | vapor or sublimation pressure (308.15 K) | vapor or sublimation pressure (313.15 K) | vapor or sublimation pressure (318.15 K) | vapor or sublimation pressure (323.15 K) | vapor or sublimation pressure (328.15 K) | vapor or sublimation pressure (333.15 K) | vapor or sublimation pressure (338.15 K) | vapor or sublimation pressure (343.15 K) | vapor or sublimation pressure (348.15 K) | vapor or sublimation pressure (353.15 K) | vapor or sublimation pressure (358.15 K) | vapor or sublimation pressure (363.15 K)
CCCCO [butan-1-ol] | 1.003 ± 0.2 kPa | 1.317 ± 0.2 kPa | 1.841 ± 0.2 kPa | 2.544 ± 0.2 kPa | 3.453 ± 0.2 kPa | 4.648 ± 0.2 kPa | 6.171 ± 0.2 kPa | 8.103 ± 0.2 kPa | 10.56 ± 0.2 kPa | 13.6 ± 0.2 kPa | 17.37 ± 0.2 kPa | 21.98 ± 0.2 kPa | 27.65 ± 0.2 kPa | 34.41 ± 0.21 kPa
CCCO [propan-1-ol] | 2.88 ± 0.013 kPa | 3.998 ± 0.015 kPa | 5.374 ± 0.018 kPa | 7.197 ± 0.023 kPa | 9.568 ± 0.028 kPa | 12.42 ± 0.035 kPa | 16.14 ± 0.044 kPa | 20.72 ± 0.055 kPa | 26.41 ± 0.069 kPa | 33.23 ± 0.086 kPa | 41.63 ± 0.11 kPa | 51.67 ± 0.13 kPa | 63.69 ± 0.16 kPa | 77.81 ± 0.2 kPa
CC(C)O [propan-2-ol] | 5.799 ± 0.2 kPa | 7.859 ± 0.2 kPa | 10.52 ± 0.2 kPa | 13.94 ± 0.2 kPa | 18.24 ± 0.2 kPa | 23.64 ± 0.2 kPa | 30.35 ± 0.21 kPa | 38.59 ± 0.21 kPa | 48.66 ± 0.21 kPa | 60.66 ± 0.22 kPa | 75.22 ± 0.23 kPa | 92.44 ± 0.24 kPa |  | 
CCO [ethanol] | 7.916 ± 0.024 kPa | 10.54 ± 0.031 kPa | 13.84 ± 0.039 kPa | 17.98 ± 0.049 kPa | 23.17 ± 0.062 kPa | 29.58 ± 0.077 kPa | 37.46 ± 0.097 kPa | 46.95 ± 0.12 kPa | 58.58 ± 0.15 kPa | 72.24 ± 0.18 kPa | 88.66 ± 0.22 kPa |  |  | 
CO [methanol] | 16.95 ± 0.046 kPa | 21.88 ± 0.058 kPa | 27.98 ± 0.073 kPa | 35.51 ± 0.092 kPa | 44.59 ± 0.11 kPa | 55.65 ± 0.14 kPa | 68.94 ± 0.17 kPa | 84.62 ± 0.21 kPa |  |  |  |  |  | 
CCC(C)O (stereo not drawn) [butan-2-ol] | 2.44 ± 0.2 kPa | 3.373 ± 0.2 kPa | 4.588 ± 0.2 kPa | 6.234 ± 0.2 kPa | 8.252 ± 0.2 kPa | 10.86 ± 0.2 kPa | 14.13 ± 0.2 kPa | 18.34 ± 0.2 kPa | 23.49 ± 0.2 kPa | 29.71 ± 0.21 kPa | 37.2 ± 0.21 kPa | 46.36 ± 0.21 kPa | 57.16 ± 0.22 kPa | 70.24 ± 0.23 kPa
